Source: patent US12492214B2, “Solid state forms of Risdiplam and process for preparation thereof” (ASSIA CHEMICAL INDUSTRIES LTD., priority 2019, dated 2025)

Test: Stability of the solid form under mass pressure
Type: physicochemical
Settings: mass pressure of 1 ton for 3 minutes
Description: Form 3 is characterized by needle to ‘rod-like’ morphology. This morphology may be beneficial for flowability properties. In addition, Form 3 is found to be stable under mass pressure of 1 ton for 3 minutes.

stability under mass pressure: stable
Compound: Cc1cn2nc(-c3cc(=O)n4cc(N5CCNC6(CC6)C5)ccc4n3)cc(C)c2n1 [Form 3, 7-(4,7-diazaspiro[2.5]octan-7-yl)-2-(2,8-dimethylimidazo[1,2-b]pyridazin-6-yl)-4H-pyrido[1,2-a]pyrimidin-4-one]
